Laboratory results: PubChem BioAssay (NCI)
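Following 48 hours of exposure in 96-well plates, responses at five concentrations were used to interpolate endpoints linearly. Here, GI50 denotes the concentration required for 50% inhibition of growth. TGI marks complete inhibition of growth.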

Tests used:
Experiment in all cases: growth of human tumour cells (NCI), 48 h
T-47D breast = test system: T-47D breast
HS 578T breast = test system: HS 578T breast
MDA-N = test system: MDA-N
DMS 114 small cell lung = test system: DMS 114 small cell lung
HOP-18 NSCLC = test system: HOP-18 NSCLC
RXF-631 renal = test system: RXF-631 renal
M19-MEL melanoma = test system: M19-MEL melanoma
DMS 273 small cell lung = test system: DMS 273 small cell lung

Row | SMILES | TGI (T-47D breast) [µM] | TGI (HS 578T breast) [µM] | TGI (MDA-N) [µM] | TGI (DMS 114 small cell lung) [µM] | TGI (HOP-18 NSCLC) [µM] | TGI (RXF-631 renal) [µM] | TGI (M19-MEL melanoma) [µM] | GI50 (T-47D breast) [µM] | GI50 (HS 578T breast) [µM] | TGI (DMS 273 small cell lung) [µM]
1 | CC(=O)O[C@@H]1[C@@H](O)C2=C3[C@]4(C)[C@@H]1C(C)(C)C(=O)C[C@@H]4[C@]3(O)[C@H](OC(C)=O)[C@@]1(C[C@@H]1C)C2=O | 36 | > 100 |  |  |  |  |  |  |  | 
2 | C=C1c2[nH]c3ccccc3c2C2C(CC)C1CCN2C (centres undefined) | > 100 | > 100 | > 100 |  |  |  |  |  |  | 
3 | CC1=C(C(=O)Nc2cc(=O)n(C)c(=O)n2C)C(c2ccc([N+](=O)[O-])cc2)C(C(=O)Nc2cc(=O)n(C)c(=O)n2C)=C(C)N1 |  |  |  | > 100 | > 100 | > 100 | > 100 |  |  | 
4 | COC(=O)NC1(NC(=O)OC)NC(=O)c2cc(OC)c(OC)c(OC)c2N1 | > 100 | 67.7 | 16.9 |  |  |  |  |  |  | 
5 | CN1C(=O)[C@@H](NC(=O)[C@H](CCC(F)(F)F)[C@H](CCC(F)(F)F)C(N)=O)N=C(c2ccccc2)c2ccccc21 | > 100 | > 100 |  |  |  |  |  | 46.2 | > 100 | 
6 | COc1ccc(-c2nc(C(=O)c3ccccc3)n(CC(=O)c3ccccc3)c2-c2ccc(OC)cc2)cc1 | > 100 | > 100 |  |  |  |  |  | > 100 | > 100 | 
7 | CC(=O)C1C(=O)NC(=O)C1=O (centres undefined) |  |  |  | > 100 | > 100 |  | > 100 |  |  | > 100
8 | COc1cc(O)c2c(c1)C(=O)C=C(Cl)C2=O |  |  |  | > 100 | > 100 | > 100 | > 100 |  |  | > 100
9 | O=C(CC1(O)C(=O)Nc2ccccc21)c1ccco1 (centres undefined) |  |  |  | > 100 |  |  | > 100 |  |  | > 100
10 | O=S(=O)(SCc1ccccc1)C(c1ccccc1)c1ccccc1 |  |  |  | 48.1 |  |  | > 100 |  |  | > 100
11 | CCN1C2=NCCN2S(=O)(=O)c2ccccc21 | > 100 | > 100 | > 100 |  |  |  |  |  |  | 
12 | Cc1nc(CN2CCCCC2)c(O)c(=O)[nH]1 | > 100 | > 100 | > 100 |  |  |  |  |  |  | 
13 | S=C(Nc1ccc(Cl)cc1)Nc1ccc(-c2nc3ccccc3o2)cc1 | 82.8 | 79.2 |  |  |  |  |  | 16.8 | 21.2 | 
14 | Cc1ccc(NC(=O)C(=O)CC(=O)C2CCOC2=O)c(C)c1 (centres undefined) |  |  |  | > 100 | > 100 | > 100 |  |  |  | > 100
15 | CN(C)c1ncc(-c2ccc(C(F)(F)F)cc2)c(NC2CCCCCC2)n1 | > 100 | > 100 |  |  |  |  |  | 25 | 23.1 | 
16 | CC(=O)OC1CC2Oc3ccc(C)cc3C(C)(O2)C1=O (centres undefined) |  |  |  | > 100 | > 100 |  | > 100 |  |  | > 100
17 | Clc1ccc(C2=Nn3c(nnc3-c3cc(Cl)cc(Cl)c3Cl)SC2)cc1 | > 100 | 71.3 |  |  |  |  |  | > 100 | 16.5 | 
18 | COc1ccc(C(=O)C(c2ccc(OC)cc2)C2OC(=O)C(Cl)=C2Cl)cc1 (centres undefined) |  |  |  | > 100 | > 100 |  | > 100 |  |  | 
19 | O=C(Nc1cccc(Cc2cccc(NC(=O)c3ccccc3)c2)c1)c1ccccc1 |  |  |  | > 100 | > 100 |  | > 100 |  |  | > 100

Row | SMILES | TGI (T-47D breast) [µM] | TGI (HS 578T breast) [µM] | TGI (MDA-N) [µM] | TGI (DMS 114 small cell lung) [µM] | TGI (HOP-18 NSCLC) [µM] | TGI (RXF-631 renal) [µM] | TGI (M19-MEL melanoma) [µM] | GI50 (T-47D breast) [µM] | GI50 (HS 578T breast) [µM] | TGI (DMS 273 small cell lung) [µM]
20 | CC1(C)OB(O)OC1(C)C |  |  |  | > 100 | > 100 |  |  |  |  | > 100
21 | Fc1ccc(-c2ncn(C3CCNCC3)c2-c2ccnc(Oc3ccc(F)c(F)c3)n2)cc1 | 10.2 | > 18.4 |  |  |  |  |  | 4.7 | 9.58 | 
22 | O=C(O)CCC/C=C\C[C@H]1C=CC(=O)/C1=C/C[C@@H](O)CCc1cccc(C(F)(F)F)c1 | 17.5 | 71.2 |  |  |  |  |  | 2.82 | 13.7 | 
23 | Cc1ccc(C2NC(=O)c3ccccc3N2)s1 (centres undefined) |  |  |  | > 100 |  |  | > 100 |  |  | > 100
24 | NC(=O)c1coc(C2OC(CO)C(O)C2O)n1 (centres undefined) |  |  |  | > 100 | > 100 |  | > 100 |  |  | > 100
25 | O=c1cc(-c2ccccc2)oc2cc(O)cc(O)c12 |  |  |  | 58.2 |  |  | 73.5 |  |  | 34
26 | CC(=O)N1c2ccccc2NC2=C(C(=O)N(Cc3ccccc3)C2(C)C)C1c1ccco1 (centres undefined) | > 25 | > 21.9 |  |  |  |  |  | 4.88 | 0.976 | 
27 | Nc1nc2cc3ccc(C4CC(O)C(CO)O4)cc3cc2c(=O)[nH]1 (centres undefined) | > 100 | > 100 |  |  |  |  |  | > 100 | > 100 | 
28 | CN(CC#N)C1CCCC[C@H]1O (some centres undefined) |  |  |  | > 100 | > 100 |  |  |  |  | > 100
29 | CS(=O)(=O)Nc1cccc(-c2cc(-c3ccccc3Cl)c(C#N)c(N)n2)c1 | 14.6 | 6.62 |  |  |  |  |  | 0.695 | 0.321 | 
30 | CN1CCN(c2cc(C(=O)Nc3cc4cc(-c5cnn(C)c5)ccc4cn3)ccn2)CC1 | 10.5 | 6.18 |  |  |  |  |  | 0.0769 | 0.276 | 
31 | C#CCN(N=O)C(=O)NC(CCCNC(=O)OCc1ccccc1)C(=O)OCc1ccccc1 (centres undefined) |  |  |  | > 100 |  |  | > 100 |  |  | > 100
32 | COC(=O)Nc1nc2ccc(C(=O)c3ccc(N(C)C4COC4)cc3)cc2[nH]1 |  | > 100 |  |  |  |  |  |  | 0.358 | 
33 | O=C(/C=C/C=C/c1c(C2CC2)nc2ccccc2c1-c1ccc(F)cc1)c1cccs1 | 65.6 | > 100 |  |  |  |  |  | 0.718 | 3.68 | 
34 | O=C(O)c1cc2ccccc2c(N=Nc2cc(C(F)(F)F)ccc2Cl)c1O | > 100 | > 100 | > 100 |  |  |  |  |  |  | 
35 | COc1ccc(C[C@@H]2NC[C@@H](O)[C@@H]2OC(C)=O)cc1 | 0.193 | 0.169 |  | > 100 | 6.35 |  | > 100 |  |  | > 100
36 | Cc1cc(Nc2c3ccccc3nc3ccccc23)ccc1NS(C)(=O)=O | 24.5 | 11.7 |  |  |  |  |  | 5.51 | 2.45 | 
37 | O/N=C1/C(=C/c2ccc(Oc3ccccc3)cc2)CCCC1C(NO)c1ccc(Oc2ccccc2)cc1 (centres undefined) |  |  |  | > 100 | > 100 | > 100 | > 100 |  |  | > 100
38 | COc1cc2c3c(n(CCCNCCCNCCCNCCCN)c(=O)c2cc1OC)-c1cc2c(cc1C3=O)OCO2 | > 100 | 8.42 |  |  |  |  |  | 2.36 | 2.78 | 
